Data: US5272078A, “CDNA encoding the type I iodothyronine 5'deiodinase” (Brigham and Women's Hospital, priority 1992, dated 1993)
Substitutions are numbered along the chain they refer to. pKi: −log10 of the molar value. “And” between values parts separate entries of the source, which are not always exact repeats. Equal entries are not always repeated. Where two headings read alike, the source gives them in different places.

What was measured:
[1] = biological target: T1, Type I iodothyronine 5' deiodinase, TGA (selenocysteine-126) (Rattus norvegicus, UniProt P24389); assay: Sensitivity to gold thioglucose, wild type (TGA) G21 cDNA, JEG cell sonicates; format: biochemical; conditions: for Deiodinase Activity of JEG cell sonicates: 10 mM DTT, 300 nM 125I rT3, 30 min
T1 construct: the full length protein terminates at the UAG codon at nucleotide 778; expressed in transfected cells; host or cells: JEG-3 human choriocarcinoma cells, vector CDM-8 (homogenates, microsomal fractions or sonicates)
T1 sequence (P24389 1-257): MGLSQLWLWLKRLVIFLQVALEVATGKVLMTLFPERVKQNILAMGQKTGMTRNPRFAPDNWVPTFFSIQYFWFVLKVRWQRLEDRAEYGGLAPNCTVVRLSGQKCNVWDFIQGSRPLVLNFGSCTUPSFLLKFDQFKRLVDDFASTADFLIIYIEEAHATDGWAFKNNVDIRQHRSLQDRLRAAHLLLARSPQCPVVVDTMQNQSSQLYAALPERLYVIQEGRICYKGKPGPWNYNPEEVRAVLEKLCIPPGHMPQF
From the text: (§1) Wild type (TGA) or cysteine mutant (TGT) G21 cDNA in CDM-8 was transfected into JEG-3 as described in Example III. […] 1β-D-Thioglucose (5 μm) had no effect on enzyme activity. 1.

[2] = biological target: T2, Type I iodothyronine 5' deiodinase, TGT (cysteine-126) mutant (Rattus norvegicus, UniProt P24389, U126C); assay: Sensitivity to gold thioglucose, cysteine mutant (TGT) G21 cDNA, JEG cell sonicates; format: biochemical; conditions: for Deiodinase Activity of JEG cell sonicates: 10 mM DTT, 300 nM 125I rT3, 30 min
T2 construct: expressed in transfected cells; host or cells: JEG-3 cells, vector CDM-8 (cell sonicate)
T2 sequence (P24389 1-257 U126C): T1 sequence (P24389 1-257) with U126C
From the text: as §1

[3] = biological target: T3, Human Type I 5'-Deiodinase (Homo sapiens, UniProt P49895); assay: Kinetics of rT3 deiodination, enzyme transiently expressed in COS-7 cells; format: biochemical
T3 construct: expressed in transfected cells; host or cells: COS-7 cells (cell sonicate)
T3 sequence (P49895 1-249): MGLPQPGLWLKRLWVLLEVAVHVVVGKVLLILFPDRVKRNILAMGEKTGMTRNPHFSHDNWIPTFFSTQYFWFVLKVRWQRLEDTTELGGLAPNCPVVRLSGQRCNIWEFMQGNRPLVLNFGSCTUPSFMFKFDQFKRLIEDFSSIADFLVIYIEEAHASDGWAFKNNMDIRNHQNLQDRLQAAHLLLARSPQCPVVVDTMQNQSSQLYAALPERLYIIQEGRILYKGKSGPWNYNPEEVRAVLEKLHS
Procedure: Cell sonicate protein concentration was approximately 12 mg ml^-1 by Biorad determination using gamma globulin as a standard.
Incubations were for 30 minutes at 37° C. and ^125 I was quantitated as previously described (Berry, et al., Mol. Endocrinol. 4:743-748 (1990)).

rat 5' deiodinase = biological target: T4, rat 5' deiodinase (Rattus norvegicus, UniProt P24389); assay: Affinity labelling with bromoacetyl T3, rat enzyme; format: binding
T4 construct: the full length protein terminates at the UAG codon at nucleotide 778; expressed in transfected cells, vector CDM-8; cell sonicate
T4 sequence (P24389 1-257): T1 sequence (P24389 1-257)
Procedure: (§2) The final product in 2 ml of acidified 20% ethanol was diluted with 3 volumes of water and purified by chromatography on a column (2.5×0.8cm) of Sephadex LH-20 (Pharmacia). […] Densitometric quantitation of the autoradiographs was performed by a Molecular Dynamics computing densitometer (Sunnyvale, Calif.).

human 5' deiodinase [4] = biological target: T5, human 5' deiodinase (Homo sapiens, UniProt P49895); assay: Affinity labelling with bromoacetyl T3, human enzyme; format: binding; design: expressed in transfected cells; host or cells: COS-7 cells (cell sonicate)
T5 sequence (P49895 1-249): T3 sequence (P49895 1-249)
Procedure: as §2

5' deiodinase activity = biological target: T6, 5' deiodinase activity (Rattus norvegicus, UniProt P24389); conditions: rats; cited from earlier work
T6 construct: host or cells: rat, in vivo
T6 sequence (P24389 1-257): T1 sequence (P24389 1-257)

Type I 5' deiodinase = biological target: T7, Type I 5' deiodinase (Rattus norvegicus, UniProt P24389); assay: rT3 deiodination by clone G21 enzyme expressed in transfected JEG-3 cells; format: biochemical; conditions: for mode of inhibition: rT3 as substrate
T7 construct: the full length protein terminates at the UAG codon at nucleotide 778; expressed in transfected cells; host or cells: JEG-3 human choriocarcinoma cells, vector CDM-8 (homogenates, microsomal fractions or sonicates)
T7 sequence (P24389 1-257): T1 sequence (P24389 1-257)
From the text: To verify that this clone encoded the Type I 5' deiodinase, it was expressed in JEG-3 human choriocarcinoma cells following DNA transfection.
To confirm that this clone encoded Type I 5' deiodinase, it was expressed in JEG-3 human choriocarcinoma cells following DNA transfection.

human 5' deiodinase [5] = biological target: T5, human 5' deiodinase; conditions: with or without 0.5 mM PTU; 100 nM 125I-T4, 25 mM DTT, 16 hours
Procedure: T4, T3 and I^- were separated by paper chromatography and identified by staining of chromatographed unlabelled standards. The ^125 I content of the products was quantitated by counting the paper strips in a gamma scintillation counter. All assays were performed in duplicate. Kinetic analyses were performed as previously described (Berry, et al., J. Biol. Chem. 266:14155-14158 (1991)) by drawing double reciprocal plots of deiodination rate vs. substrate concentration. […] Since the enzyme is not pure, all kinetic constants are apparent.

[6] = biological target: T8, Liver Microsomal Human Type I 5'-Deiodinase (Homo sapiens, UniProt P49895); conditions: cited from earlier work
T8 construct: those of the human liver microsomal enzyme; from tissue; host or cells: human liver microsomes
T8 sequence (P49895 1-249): T3 sequence (P49895 1-249)

T4 to T3 conversion = conditions: cited from earlier work
Type I deiodinase = biological target: T9, Type I deiodinase (Rattus norvegicus, UniProt P24389); conditions: cited from earlier work
T9 sequence (P24389 1-257): T1 sequence (P24389 1-257)

[7] = biological target: T10, rat 5' deiodinase cysteine mutant (Rattus norvegicus, UniProt P24389, U126C); conditions: cited from earlier work
T10 sequence (P24389 1-257 U126C): T1 sequence (P24389 1-257) with U126C

[8] = PTU 100 μM, read-out: decrease in BrAcT3 labelling

## gold thioglucose [GTG]
[1]; GTG 1 nM
  Inhibition: 0%
  Deiodinase Activity of JEG cell sonicates: 7.0 pmol rT3 min^-1 mg protein^-1
[1]; GTG 10 nM
  Inhibition: 43%
  Deiodinase Activity of JEG cell sonicates: 4.0 pmol rT3 min^-1 mg protein^-1
[1]; GTG 10 nM, listed as gold thioglucose
  Inhibition: ~ 50%
[1]; GTG 100 nM
  Inhibition: 95%
  Deiodinase Activity of JEG cell sonicates: 0.95 pmol rT3 min^-1 mg protein^-1
[2]
  sensitivity to inhibition compared with the native enzyme: much less sensitive
[2]; GTG 10 nM
  Inhibition: 0%
  Deiodinase Activity of JEG cell sonicates: 1.3 pmol rT3 min^-1 mg protein^-1
[2]; GTG 100 nM
  Inhibition: 13%
  Deiodinase Activity of JEG cell sonicates: 1.1 pmol rT3 min^-1 mg protein^-1
[3]; read-out: Ki (GTG · rT3), 10 mM DTT, competitive, apparent
  pKi: 8.33
Rat 5' deiodinase; 100 nM gold thioglucose
  BrAcT3 labelling of the ~28 kDa protein: inhibited
Human 5' deiodinase [4]; 100 nM gold thioglucose
  BrAcT3 labelling of the ~28 kDa protein: inhibited

## gold
5' deiodinase activity
  5' deiodinase activity after administration: Inhibition

## O=C(CBr)NC(Cc1cc(I)c(Oc2ccc(O)c(I)c2)c(I)c1)C(=O)O (centres unmarked) [BrAcT3]
Rat 5' deiodinase; excess cold BrAcT3 (364 nM)
  BrAcT3 labelling of the ~28 kDa protein: inhibited
Human 5' deiodinase [4]; excess cold BrAcT3 (364 nM)
  BrAcT3 labelling of the ~28 kDa protein: inhibited

## CCCc1cc(=O)[nH]c(=S)[nH]1 [PTU, propylthiouracil]
Type I 5' deiodinase; 0.5 μM PTU
  inhibition at 0.5 µM: > 50%
Type I 5' deiodinase
  mode of inhibition: competitive inhibitor of DTT
[3]; Ki (PTU · DTT), competitive with respect to DTT, apparent
  pKi: 7.85
[3]; Ki (PTU · rT3), 10 mM DTT, uncompetitive inhibitor of rT3 deiodination, apparent
  pKi: 6.77
Human 5' deiodinase [5]
  T4 to T3 conversion, sensitivity to PTU: PTU-sensitive
Rat 5' deiodinase; [8]
  inhibition at 100 µM: 35 to 40%
[6]; read-out: Ki (PTU · DTT)
  pKi: 7.00
[6]; read-out: Ki (PTU · rT3), 5 mM DTT
  pKi: 6.55
T4 to T3 conversion; 100 mg, euthyroid subjects
  131I release from T4: inhibition
T4 to T3 conversion; hyperthyroid patients
  T4 to T3 conversion: dose-related inhibition
Human 5' deiodinase [4]; [8]
  inhibition at 100 µM: 35 to 40%

## N[C@@H](Cc1cc(I)c(Oc2cc(I)c(O)c(I)c2)c(I)c1)C(=O)O [T4, thyroxine]
Type I 5' deiodinase
  mode of inhibition: competitive inhibitor of rT3 deiodination
[3]
  pKi: 5.21
Rat 5' deiodinase; T4 30 μM, read-out: reduction of BrAcT3 labelling
  inhibition at 30 µM: 67%
Human 5' deiodinase [4]; T4 30 μM
  BrAcT3 labelling of the ~28 kDa protein: does not inhibit

## O[C@H](CS)[C@H](O)CS (racemic) [DTT, dithiothreitol]
[3]; apparent
  Kb: 5000 µM

## OC[C@H]1O[C@@H](S)[C@H](O)[C@@H](O)[C@@H]1O [1β-D-Thioglucose]
[1]; 5 μm
  effect on enzyme activity: no effect

## N[C@@H](Cc1ccc(Oc2cc(I)c(O)c(I)c2)c(I)c1)C(=O)O [rT3, 3,3',5'-triiodothyronine]
[3]; 10 mM DTT
  Vmax (rT3): 63.2 ± 16.4 pmol/min/mg and 63.2 pmol/min/mg
Rat 5' deiodinase; rT3 3 μM and 10 μM
  BrAcT3 labelling of the ~28 kDa protein: inhibited
Type I deiodinase
  Vmax/Km ratio for rT3 higher than for T4: 1000 fold
[6]; 5 mM DTT
  Vmax (rT3): 128 to 242 pmol/min/mg
[7]
  apparent Km of the cysteine mutant higher than wild type: 10 fold
Human 5' deiodinase [4]; rT3 3 μM and 10 μM
  BrAcT3 labelling of the ~28 kDa protein: inhibited
